Reference: patent publication EP4707280A1, “1,4-CINEOLE DERIVATIVE AND INTERMEDIATE THEREOF, HERBICIDE CONTAINING SAID DERIVATIVE AS ACTIVE INGREDIENT, METHOD FOR USING HERBICIDE, AND METHOD FOR PREPARING AGROCHEMICAL COMPOSITION” (HOKKO CHEMICAL INDUSTRY CO., LTD., priority 2023, dated 2024)

Columns and labels:
Format in all cases: in vivo
Echinochloa crus-galli [1] = test: Test Example 3: herbicidal effect test by soil application in upland field; conditions: 120 g per 10 ares, sprayed one day after sowing, 14 days after application; for inhibition at 1200 g/ha: Echinochloa crus-galli, read-out: weed inhibition rate
Protocol: (§1) The present test was conducted in duplicate for each chemical concentration group, and the weed inhibition rate (%) was determined 14 days after chemical application using the following formula (Math. 1). [formula]
(§2) Pots with an area of 36 cm^2 were filled with upland soil (alluvial loam), twenty seeds each of weeds of Digitaria ciliaris, Echinochloa crus-galli, Chenopodium album, and Amaranthus viridis were uniformly mixed with the top 1 cm layer of soil and the surface was lightly pressed down. One day after sowing, an emulsifiable concentrate prepared according to Formulation Example 5 using the compound shown below was diluted with water, and the diluted solution was sprayed onto the soil surface at a rate of 100 liters per 10 ares. The amount of the active ingredient to be applied was equivalent to 120 g per 10 ares. Fourteen days after chemical application, the herbicidal effect was evaluated according to the same criteria as in Test Example 1.

Digitaria ciliaris [2] = test: as above; conditions: 120 g per 10 ares, sprayed one day after sowing, 14 days after application; for inhibition at 1200 g/ha: Digitaria ciliaris, read-out: weed inhibition rate
Protocol: as §1, §2

Echinochloa crus-galli [3] = test: Test Example 4: herbicidal effect test by stem and leaf treatment in upland field; conditions: 120 g per 10 ares, sprayed seven days after sowing, upland soil, 14 days after application; for inhibition at 1200 g/ha: Echinochloa crus-galli, read-out: weed inhibition rate
[4] = tested on: Echinochloa crus-galli var. formosensis; test: Test Example 1: herbicidal effect test by soil application in paddy rice; conditions: 120 g active ingredient per 10 ares, applied immediately after sowing, flooded pots, 14 days after application; for pest or weed control at 1200 g/ha: Echinochloa crus-galli, soil, 336 h, read-out: weed inhibition rate
Protocol: Wagner pots with an area of […] were filled with paddy soil, followed by addition of water and incorporation of chemical fertilizer (N:P:K = 16:16:16), after which puddling was performed. After that, seeds of Echinochloa crus-galli var. formosensis, broad-leaved weeds ([…] Monochoria vaginalis), and Scirpus juncoides were sown at a depth of 0 cm to 1 cm, 30 seeds each. Immediately after sowing, the pots were flooded and a water depth of approximately 3 cm was maintained. Subsequent management was conducted in a glass greenhouse. Immediately thereafter, an emulsifiable concentrate prepared according to Formulation Example 5 using the compound shown below was diluted with water, and a specified amount of the diluted solution was applied by dropper. The amount of the active ingredient to be applied was equivalent to 120 g per 10 ares.

Digitaria ciliaris [5] = test: Test Example 4: herbicidal effect test by stem and leaf treatment in upland field; conditions: 120 g per 10 ares, sprayed seven days after sowing, upland soil, 14 days after application; for inhibition at 1200 g/ha: Digitaria ciliaris, read-out: weed inhibition rate
Protocol: as §1
as §2, with “crus-galli,” for “crus-galli, Chenopodium album,”, “Seven days” for “One day”

[6] = tested on: Echinochloa crus-galli var. formosensis; test: Test Example 2: herbicidal effect test by application during growth period of paddy rice; conditions: 120 g per 10 ares, applied seven days after sowing, flooded pots, 14 days after application; for inhibition at 1200 g/ha: Echinochloa crus-galli, read-out: weed inhibition rate
Protocol: as §1
Wagner pots with an area of […] were filled with paddy soil, followed by addition of water and incorporation of chemical fertilizer (N:P:K = 16:16:16), after which puddling was performed. After that, seeds of Echinochloa crus-galli var. formosensis, broad-leaved weeds (Monochoria vaginalis), and Scirpus juncoides were sown at a depth of 0 cm to 1 cm, 30 seeds each. Immediately after sowing, the pots were flooded and a water depth of approximately 3 cm was maintained. Subsequent management was conducted in a glass greenhouse. Seven days after sowing, an emulsifiable concentrate prepared according to Formulation Example 5 using the compound shown below was diluted with water, and a specified amount of the diluted solution was applied by dropper. The amount of the active ingredient to be applied was equivalent to 120 g per 10 ares. The test was conducted in duplicate for each chemical concentration group, and the herbicidal effect was evaluated 14 days after chemical application using the same criteria as in Test Example 1.

Cc1ccccc1CO[C@H]1C[C@@]2(C(C)C)O[C@]1(C)C[C@H]2Br [1-1016, (1R,2S,4S,5R)-5-bromo-1-methyl-2-[(2-methylphenyl)methoxy]-4-isopropyl-7-oxabicyclo[2.2.1]heptane]
≥ 80%: inhibition at 1200 g/ha (Echinochloa crus-galli [1]) | inhibition at 1200 g/ha (Digitaria ciliaris [2]) | inhibition at 1200 g/ha (Echinochloa crus-galli [3]) | pest or weed control at 1200 g/ha [4] | inhibition at 1200 g/ha (Digitaria ciliaris [5]) | inhibition at 1200 g/ha [6]

COc1ccccc1CO[C@H]1C[C@@]2(C(C)C)O[C@]1(C)C[C@H]2Br [1-1022, (1R,2S,4S,5R)-5-bromo-2-[(2-methoxyphenyl)methoxy]-1-methyl-4-isopropyl-7-oxabicyclo[2.2.1]heptane]
≥ 80%: inhibition at 1200 g/ha (Echinochloa crus-galli [1]) | inhibition at 1200 g/ha (Digitaria ciliaris [2]) | inhibition at 1200 g/ha (Echinochloa crus-galli [3]) | pest or weed control at 1200 g/ha [4] | inhibition at 1200 g/ha (Digitaria ciliaris [5]) | inhibition at 1200 g/ha [6]

CC(C)[C@@]12C[C@H](OCc3ccccc3Br)[C@@](C)(C[C@H]1Br)O2 [1-1034, (1R,2S,4S,5R)-5-bromo-2-[(2-bromophenyl)methoxy]-1-methyl-4-isopropyl-7-oxabicyclo[2.2.1]heptane]
≥ 80%: inhibition at 1200 g/ha (Echinochloa crus-galli [1]) | inhibition at 1200 g/ha (Digitaria ciliaris [2]) | inhibition at 1200 g/ha (Echinochloa crus-galli [3]) | pest or weed control at 1200 g/ha [4] | inhibition at 1200 g/ha (Digitaria ciliaris [5]) | inhibition at 1200 g/ha [6]

CC(C)[C@@]12C[C@H](OCc3ccccc3I)[C@@](C)(C[C@H]1Br)O2 [1-1037, (1R,2S,4S,5R)-5-bromo-2-[(2-iodophenyl)methoxy]-1-methyl-4-isopropyl-7-oxabicyclo[2.2.1]heptane]
≥ 80%: inhibition at 1200 g/ha (Echinochloa crus-galli [1]) | inhibition at 1200 g/ha (Digitaria ciliaris [2]) | inhibition at 1200 g/ha (Echinochloa crus-galli [3]) | pest or weed control at 1200 g/ha [4] | inhibition at 1200 g/ha (Digitaria ciliaris [5]) | inhibition at 1200 g/ha [6]

CC(C)[C@@]12C[C@H](OCc3ccccc3C#N)[C@@](C)(C[C@H]1Br)O2 [1-1043, 2-[[(1R,2S,4S,5R)-5-bromo-1-methyl-4-isopropyl-7-oxabicyclo[2.2.1]heptan-2-yl]oxymethyl]benzonitrile]
≥ 80%: inhibition at 1200 g/ha (Echinochloa crus-galli [1]) | inhibition at 1200 g/ha (Digitaria ciliaris [2]) | inhibition at 1200 g/ha (Echinochloa crus-galli [3]) | pest or weed control at 1200 g/ha [4] | inhibition at 1200 g/ha (Digitaria ciliaris [5]) | inhibition at 1200 g/ha [6]

CC(C)[C@@]12C[C@H](OCc3c(F)cccc3F)[C@@](C)(C[C@H]1Br)O2 [1-1052, (1R,28,48,5R)-5-bromo-2-[(2,6-difluorophenyl)methoxy]-1-methyl-4-isopropyl-7-oxabicyclo[2.2.1]heptane]
≥ 80%: weed inhibition rate (Echinochloa crus-galli [1]) | weed inhibition rate (Digitaria ciliaris [2]) | weed inhibition rate (Echinochloa crus-galli [3]) | weed inhibition rate [4] | weed inhibition rate (Digitaria ciliaris [5]) | weed inhibition rate [6]

CC(C)[C@@]12C[C@H](OCc3c(Cl)cccc3Cl)[C@@](C)(C[C@H]1Br)O2 [1-1053, (1R,2S,4S,5R)-5-bromo-2-[(2,6-dichlorophenyl)methoxy]-1-methyl-4-isopropyl-7-oxabicyclo[2.2.1]heptane]
≥ 80%: inhibition at 1200 g/ha (Echinochloa crus-galli [1]) | inhibition at 1200 g/ha (Digitaria ciliaris [2]) | inhibition at 1200 g/ha (Echinochloa crus-galli [3]) | pest or weed control at 1200 g/ha [4] | inhibition at 1200 g/ha (Digitaria ciliaris [5]) | inhibition at 1200 g/ha [6]

CC(C)[C@@]12C[C@H](OCc3c(F)cccc3Cl)[C@@](C)(C[C@H]1Br)O2 [1-1054, (1R,2S,4S,5R)-5-bromo-2-[(2-chloro-6-fluorophenyl)methoxy]-1-methyl-4-isopropyl-7-oxabicyclo[2.2.1]heptane]
≥ 80%: inhibition at 1200 g/ha (Echinochloa crus-galli [1]) | inhibition at 1200 g/ha (Digitaria ciliaris [2]) | inhibition at 1200 g/ha (Echinochloa crus-galli [3]) | pest or weed control at 1200 g/ha [4] | inhibition at 1200 g/ha (Digitaria ciliaris [5]) | inhibition at 1200 g/ha [6]

CC(C)[C@@]12C[C@H](OCc3ccccn3)[C@@](C)(C[C@H]1Br)O2 [1-1059, 2-[[(1R,2S,4S,5R)-5-bromo-1-methyl-4-isopropyl-7-oxabicyclo[2.2.1]heptan-2-yl]oxymethyl]pyridine]
≥ 80%: inhibition at 1200 g/ha (Echinochloa crus-galli [1]) | inhibition at 1200 g/ha (Digitaria ciliaris [2]) | inhibition at 1200 g/ha (Echinochloa crus-galli [3]) | pest or weed control at 1200 g/ha [4] | inhibition at 1200 g/ha (Digitaria ciliaris [5]) | inhibition at 1200 g/ha [6]

CC(C)=CCO[C@H]1C[C@@]2(C(C)C)O[C@]1(C)C[C@H]2I [1-1073, (1R,2S,4S,5R)-5-iodo-1-methyl-2-(3-methylbut-2-enoxy)-4-isopropyl-7-oxabicyclo[2.2.1]heptane]
≥ 80%: inhibition at 1200 g/ha (Echinochloa crus-galli [1]) | inhibition at 1200 g/ha (Digitaria ciliaris [2]) | inhibition at 1200 g/ha (Echinochloa crus-galli [3]) | pest or weed control at 1200 g/ha [4] | inhibition at 1200 g/ha (Digitaria ciliaris [5]) | inhibition at 1200 g/ha [6]

COc1ccccc1CO[C@H]1C[C@@]2(C(C)C)O[C@]1(C)C[C@H]2I [1-1088, (1R,2S,4S,5R)-5-iodo-2-[(2-methoxyphenyl)methoxy]-1-methyl-4-isopropyl-7-oxabicyclo[2.2.1]heptane]
≥ 80%: inhibition at 1200 g/ha (Echinochloa crus-galli [1]) | inhibition at 1200 g/ha (Digitaria ciliaris [2]) | inhibition at 1200 g/ha (Echinochloa crus-galli [3]) | pest or weed control at 1200 g/ha [4] | inhibition at 1200 g/ha (Digitaria ciliaris [5]) | inhibition at 1200 g/ha [6]

CC(C)[C@@]12C[C@H](OCc3ccccc3F)[C@@](C)(C[C@H]1I)O2 [1-1094, (1R,2S,4S,5R)-2-[(2-fluorophenyl)methoxy]-5-iodo-1-methyl-4-isopropyl-7-oxabicyclo[2.2.1]heptane]
≥ 80%: inhibition at 1200 g/ha (Echinochloa crus-galli [1]) | inhibition at 1200 g/ha (Digitaria ciliaris [2]) | inhibition at 1200 g/ha (Echinochloa crus-galli [3]) | pest or weed control at 1200 g/ha [4] | inhibition at 1200 g/ha (Digitaria ciliaris [5]) | inhibition at 1200 g/ha [6]

CC(C)[C@@]12C[C@H](OCc3ccccc3Cl)[C@@](C)(C[C@H]1I)O2 [1-1097, (1R,2S,4S,5R)-2-[(2-chlorophenyl)methoxy]-5-iodo-1-methyl-4-isopropyl-7-oxabicyclo[2.2.1]heptane]
≥ 80%: inhibition at 1200 g/ha (Echinochloa crus-galli [1]) | inhibition at 1200 g/ha (Digitaria ciliaris [2]) | inhibition at 1200 g/ha (Echinochloa crus-galli [3]) | pest or weed control at 1200 g/ha [4] | inhibition at 1200 g/ha (Digitaria ciliaris [5]) | inhibition at 1200 g/ha [6]

CC(C)[C@@]12C[C@H](OCc3ccccc3C#N)[C@@](C)(C[C@H]1I)O2 [1-1109, 2-[[(1R,2S,4S,5R)-5-iodo-1-methyl-4-isopropyl-7-oxabicyclo[2.2.1]heptan-2-yl]oxymethyl]benzonitrile]
≥ 80%: inhibition at 1200 g/ha (Echinochloa crus-galli [1]) | inhibition at 1200 g/ha (Digitaria ciliaris [2]) | inhibition at 1200 g/ha (Echinochloa crus-galli [3]) | pest or weed control at 1200 g/ha [4] | inhibition at 1200 g/ha (Digitaria ciliaris [5]) | inhibition at 1200 g/ha [6]
